Values quoted from earlier work, collected in US11045550B2, “Use of an amino sugar as plasticizer” (Merck Patent GmbH, priority 2016, dated 2021).
Each block holds one compound with its values, some of them ahead of it.

Columns and labels:
[1] = at 144° C., literature data

Ibuprofen degraded when processed by HME [1]: 11.6%
SMILES: CC(C)Cc1ccc(C(C)C(=O)O)cc1 (stereo not shown) [Ibuprofen]

pKa (strongest basic): 3.92
SMILES: CCC(C)n1ncn(-c2ccc(N3CCN(c4ccc(OCC5COC(Cn6cncn6)(c6ccc(Cl)cc6Cl)O5)cc4)CC3)cc2)c1=O (stereo not shown) [Itraconazole]

SMILES: CNC[C@@H](O)[C@@H](O)[C@H](O)[C@H](O)CO [Meglumine, D-(−)-N-Methylglucamine]
pKa value: 9.60

pKa (strongest acidic): 3.65
SMILES: CCCc1nc2c(C)cc(-c3nc4ccccc4n3C)cc2n1Cc1ccc(-c2ccccc2C(=O)O)cc1 [Telmisartan]
